Patent publication US7521478B2, “Total synthesis of myriaporones” (Pharma Mar, S.A.U., priority 2002, dated 2009)

How the values were obtained:
Format in all cases: cell-based
DU-145 = assay: Inhibition of cell growth by colorimetric SRB assay, DU-145; conditions: Homo sapiens, DU-145, 48 hours exposure; for CC50: cell killing, read-out: LC50 (the source's name); for IC (total growth inhibition): read-out: TGI
How it was run: (§1)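 Absorbance of solubilized bound SRB (490 nm) quantified cell growth and viability after cells were exposed to compound for 48 h. Seeding was 5×10^3 cells per well in RPMI 1640/10% FBS, with 18 h attachment beforehand. GI, TGI and LC were calculated from means of triplicate wells.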

LoVo-Dox = assay: Inhibition of cell growth by colorimetric SRB assay, LOVO-DOX; conditions: Homo sapiens, LOVO-DOX, 48 hours exposure; for LC50 (concentration for 50% cell killing): read-out: LC50; for IC (total growth inhibition): read-out: TGI
How it was run: as §1

PANC-1 = assay: Inhibition of cell growth by colorimetric SRB assay, PANC-1; conditions: Homo sapiens, PANC-1, 48 hours exposure; for CC50: cell killing, read-out: LC50 (the source's name); for IC (total growth inhibition): read-out: TGI
How it was run: as §1

LoVo = assay: Inhibition of cell growth by colorimetric SRB assay, LOVO; conditions: Homo sapiens, LOVO, 48 hours exposure; for LC50: cell killing, read-out: LC50; for IC (total growth inhibition): read-out: TGI
How it was run: as §1

IGROV-ET = assay: Inhibition of cell growth by colorimetric SRB assay, IGROV-ET; conditions: Homo sapiens, IGROV-ET, 48 hours exposure; for CC50: cell killing, read-out: LC50 (the source's name); for IC (total growth inhibition): read-out: TGI
How it was run: as §1

HeLa = assay: Inhibition of cell growth by colorimetric SRB assay, HELA; conditions: Homo sapiens, HELA, 48 hours exposure; for CC50: cell killing, read-out: LC50 (the source's name); for IC (total growth inhibition): read-out: TGI
How it was run: as §1

LNCaP = assay: Inhibition of cell growth by colorimetric SRB assay, LN-caP; conditions: Homo sapiens, LN-caP, 48 hours exposure; for CC50: cell killing, read-out: LC50 (the source's name); for IC (total growth inhibition): read-out: TGI
How it was run: as §1

HT-29 = assay: Inhibition of cell growth by colorimetric SRB assay, HT-29; conditions: Homo sapiens, HT-29, 48 hours exposure; for CC50: cell killing, read-out: LC50 (the source's name); for IC (total growth inhibition): read-out: TGI
How it was run: as §1

IGROV = assay: Inhibition of cell growth by colorimetric SRB assay, IGROV; conditions: Homo sapiens, 48 hours exposure; for CC50: cell killing, read-out: LC50 (the source's name); for IC (total growth inhibition): read-out: TGI
How it was run: as §1

SK-MEL-28 = assay: Inhibition of cell growth by colorimetric SRB assay, MEL-28; conditions: Homo sapiens, SK-MEL-28, MEL-28, 48 hours exposure; for CC50: cell killing, read-out: LC50 (the source's name); for IC (total growth inhibition): read-out: TGI
How it was run: as §1

SK-BR-3 = assay: Inhibition of cell growth by colorimetric SRB assay, SK-BR-3; conditions: SK-BR-3, 48 hours exposure; for GI50 / CC50: Homo sapiens; for CC50: cell killing, read-out: LC50 (the source's name); for TGI: total growth inhibition
How it was run: as §1

K-562 = assay: Inhibition of cell growth by colorimetric SRB assay, K-562; conditions: Homo sapiens, K562, K-562, 48 hours exposure; for CC50: cell killing, read-out: LC50 (the source's name); for IC (total growth inhibition): read-out: TGI
How it was run: as §1

A-549 = assay: Inhibition of cell growth by colorimetric SRB assay, A-549; conditions: Homo sapiens, A549, A-549, 48 hours exposure; for CC50: cell killing, read-out: LC50 (the source's name); for IC (total growth inhibition): read-out: TGI
How it was run: as §1

HeLa-APL = assay: Inhibition of cell growth by colorimetric SRB assay, HELA-APL; conditions: Homo sapiens, HELA-APL, 48 hours exposure; for CC50: cell killing, read-out: LC50 (the source's name); for GI50: read-out: GI50; for IC (total growth inhibition): read-out: TGI
How it was run: as §1

C/C=C\[C@H](C)[C@H]1OC1(C)[C@@H](O)[C@@H](CO)C(=O)[C@H](CO)[C@H](O)CC(=O)CC (stereo partly drawn) [3b + 4b]
GI50 (DU-145): 6.52 µM
CC50 (DU-145): 26.8 µM
IC (total growth inhibition) (DU-145): 26.8 µM
GI50 (LoVo-Dox): 9.34 µM
LC50 (concentration for 50% cell killing) (LoVo-Dox): 26.8 µM
IC (total growth inhibition) (LoVo-Dox): 26.8 µM
GI50 (PANC-1): 26.8 µM
CC50 (PANC-1): 26.8 µM
IC (total growth inhibition) (PANC-1): 26.8 µM
GI50 (LoVo): 4.81 µM
LC50 (LoVo): 26.8 µM
IC (total growth inhibition) (LoVo): 12.6 µM
GI50 (IGROV-ET): 6.55 µM
CC50 (IGROV-ET): 26.8 µM
IC (total growth inhibition) (IGROV-ET): 26.8 µM
GI50 (HeLa): 8.73 µM
CC50 (HeLa): 26.8 µM
IC (total growth inhibition) (HeLa): 26.8 µM
GI50 (LNCaP): 9.29 µM
CC50 (LNCaP): 26.8 µM
IC (total growth inhibition) (LNCaP): 26.8 µM
GI50 (HT-29): 22.1 µM
CC50 (HT-29): 26.8 µM
IC (total growth inhibition) (HT-29): 26.8 µM
GI50 (IGROV): 5.96 µM
CC50 (IGROV): 26.8 µM
IC (total growth inhibition) (IGROV): 26.8 µM
GI50 (SK-MEL-28): 5.53 µM
CC50 (SK-MEL-28): 26.8 µM
IC (total growth inhibition) (SK-MEL-28): 26.8 µM
GI50 (SK-BR-3): 5.07 µM
CC50 (SK-BR-3): 23.3 µM
TGI (SK-BR-3): 1.09E−05 Molar
GI50 (K-562): 14.2 µM
CC50 (K-562): 23.3 µM
IC (total growth inhibition) (K-562): 18.2 µM
GI50 (A-549): 26.8 µM
CC50 (A-549): 26.8 µM
IC (total growth inhibition) (A-549): 26.8 µM
CC50 (HeLa-APL): 26.8 µM
GI50 (HeLa-APL): 5.18 µM
IC (total growth inhibition) (HeLa-APL): 26.8 µM

C/C=C\[C@H](C)[C@H]1O[C@@]1(C)[C@@H](O)[C@@H](CO)C(=O)[C@@H](CO)[C@@H](O)CC(=O)CC [3c + 4c]
GI50 (DU-145): 0.55 µM
CC50 (DU-145): 26.8 µM
IC (total growth inhibition) (DU-145): 4.16 µM
GI50 (LoVo-Dox): 0.846 µM
LC50 (concentration for 50% cell killing) (LoVo-Dox): 26.8 µM
IC (total growth inhibition) (LoVo-Dox): 6.18 µM
GI50 (PANC-1): 1.03 µM
CC50 (PANC-1): 26.8 µM
IC (total growth inhibition) (PANC-1): 13.3 µM
GI50 (LoVo): 0.714 µM
LC50 (LoVo): 26.8 µM
IC (total growth inhibition) (LoVo): 7.01 µM
GI50 (IGROV-ET): 0.703 µM
CC50 (IGROV-ET): 26.8 µM
IC (total growth inhibition) (IGROV-ET): 6.95 µM
GI50 (HeLa): 0.62 µM
CC50 (HeLa): 26.8 µM
IC (total growth inhibition) (HeLa): 4.78 µM
GI50 (LNCaP): 0.703 µM
CC50 (LNCaP): 26.8 µM
IC (total growth inhibition) (LNCaP): 4.56 µM
GI50 (HT-29): 0.564 µM
CC50 (HT-29): 26.8 µM
IC (total growth inhibition) (HT-29): 6.69 µM
GI50 (IGROV): 0.553 µM
CC50 (IGROV): 20.9 µM
IC (total growth inhibition) (IGROV): 3.57 µM
GI50 (SK-MEL-28): 0.634 µM
CC50 (SK-MEL-28): 26.8 µM
IC (total growth inhibition) (SK-MEL-28): 7.25 µM
GI50 (SK-BR-3): 1.16 µM
CC50 (SK-BR-3): 26.8 µM
TGI (SK-BR-3): 6.07E−06 Molar
GI50 (K-562): 4.59 µM
CC50 (K-562): 26.8 µM
IC (total growth inhibition) (K-562): 11.9 µM
GI50 (A-549): 0.913 µM
CC50 (A-549): 26.8 µM
IC (total growth inhibition) (A-549): 13.4 µM
CC50 (HeLa-APL): 26.8 µM
GI50 (HeLa-APL): 0.593 µM
IC (total growth inhibition) (HeLa-APL): 8.67 µM
